Laboratory results: US9656988B2 (Pharmacyclics LLC, priority 2013, dated 2017)
Read-outs that look alike come from different tables or passages of the source. Values belong to the compound of their own block, whether it stands above or below them.

Target: BTK (Homo sapiens (Human), UniProt Q06187)
Test: Btk in vitro inhibitory activity (one of Method A TR-FRET, Method B electrophoretic mobility shift, Method C radiometric filter binding)
Format: biochemical
[1] = determined using one of the methods of Example 355a, 355b and 355c, read-out: BTK IC50

BTK, sequence (Q06187 whole entry): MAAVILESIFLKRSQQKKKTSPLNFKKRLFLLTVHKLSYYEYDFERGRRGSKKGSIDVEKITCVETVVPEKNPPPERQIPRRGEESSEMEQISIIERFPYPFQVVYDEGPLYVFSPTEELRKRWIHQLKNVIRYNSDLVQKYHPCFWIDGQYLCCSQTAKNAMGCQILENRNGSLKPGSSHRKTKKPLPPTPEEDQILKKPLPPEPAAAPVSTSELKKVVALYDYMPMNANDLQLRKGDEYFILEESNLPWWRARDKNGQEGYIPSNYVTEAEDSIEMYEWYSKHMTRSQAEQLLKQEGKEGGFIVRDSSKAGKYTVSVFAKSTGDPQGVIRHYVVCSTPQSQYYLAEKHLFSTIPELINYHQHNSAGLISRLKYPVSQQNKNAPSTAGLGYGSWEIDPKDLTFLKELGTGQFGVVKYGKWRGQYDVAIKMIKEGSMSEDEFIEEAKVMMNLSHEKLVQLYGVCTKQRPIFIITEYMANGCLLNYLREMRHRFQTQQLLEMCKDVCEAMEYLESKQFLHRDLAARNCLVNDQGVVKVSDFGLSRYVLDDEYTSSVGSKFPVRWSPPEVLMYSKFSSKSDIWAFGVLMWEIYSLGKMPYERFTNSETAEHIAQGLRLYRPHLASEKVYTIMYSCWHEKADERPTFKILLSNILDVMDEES

IC50 [1]: < 10 nM
IC50 (read-out: Btk (IC50)): < 10 nM
SMILES: CN(C)C(=O)N[C@@H]1CCCN(c2cnc(C(N)=O)c(Nc3ccc(N4CCN(C5CCCC5)CC4)cc3)n2)C1 [Example 215, (R)-3-(4-(4-cyclopentylpiperazin-1-yl)phenylamino)-5-(3-(3,3-dimethylureido)piperidin-1-yl)pyrazine-2-carboxamide]

IC50 [1]: < 10 nM
SMILES: CN(C)C(=O)N[C@@H]1CCCN(c2cnc(C(N)=O)c(Nc3cnn(C4CCN(C5CCCC5)CC4)c3)n2)C1 [Example 218, (R)-3-(1-(1-cyclopentylpiperidin-4-yl)-1H-pyrazol-4-ylamino)-5-(3-(3,3-dimethylureido)piperidin-1-yl)pyrazine-2-carboxamide]

IC50 (Btk (IC50)): 10 to 100 nM
IC50 [1]: < 10 nM
SMILES: CN(C)C(=O)N(C)[C@@H]1CCCN(c2cnc(C(N)=O)c(Nc3ccc(C4CCN(C5CCCC5)CC4)cc3)n2)C1 [Example 225, (R)-3-(4-(1-cyclopentylpiperidin-4-yl)phenylamino)-5-(3-(1,3,3-trimethylureido)piperidin-1-yl)pyrazine-2-carboxamide]

IC50 (Btk (IC50)): 10 to 100 nM
IC50 [1]: 10 to 100 nM
SMILES: CN(C)C(=O)N1CCC(c2ccc(Nc3nc(N4CCC[C@@H](N(C)C(=O)N(C)C)C4)cnc3C(N)=O)cc2)CC1 [Example 226, (R)-3-(4-(1-(dimethylcarbamoyl)piperidin-4-yl)phenylamino)-5-(3-(1,3,3-trimethylureido)piperidin-1-yl)pyrazine-2-carboxamide]

IC50 (Btk (IC50)): 10 to 100 nM
IC50 [1]: 10 to 100 nM
SMILES: CCC(=O)N1CCC(c2ccc(Nc3nc(N4CCC[C@@H](N(C)C(=O)N(C)C)C4)cnc3C(N)=O)cc2)CC1 [Example 227, (R)-3-(4-(1-propionylpiperidin-4-yl)phenylamino)-5-(3-(1,3,3-trimethylureido)piperidin-1-yl)pyrazine-2-carboxamide]

IC50 (Btk (IC50)): 10 to 100 nM
IC50 [1]: 10 to 100 nM
SMILES: C[C@@H]1[C@H](N)CCCN1c1cnc(C(N)=O)c(Nc2ccc(C3CCN(C4CCCC4)CC3)cc2)n1 [Example 230, 5-((2R,3R)-3-amino-2-methylpiperidin-1-yl)-3-(4-(1-cyclopentylpiperidin-4-yl)phenylamino)pyrazine-2-carboxamide]

IC50 (Btk (IC50)): 100 to 1000 nM
IC50 [1]: 100 to 1000 nM
SMILES: C[C@H]1[C@H](N)CCCN1c1cnc(C(N)=O)c(Nc2ccc(C3CCN(C4CCCC4)CC3)cc2)n1 [Example 231, 5-((2S,3R)-3-amino-2-methylpiperidin-1-yl)-3-(4-(1-cyclopentylpiperidin-4-yl)phenylamino)pyrazine-2-carboxamide]

IC50 [1]: < 10 nM
IC50 (read-out: Btk (IC50)): < 10 nM
SMILES: C[C@@H]1[C@H](NC(=O)N(C)C)CCCN1c1cnc(C(N)=O)c(Nc2ccc(C3CCN(C4CCCC4)CC3)cc2)n1 [Example 232, 3-(4-(1-cyclopentylpiperidin-4-yl)phenylamino)-5-((2R,3R)-3-(3,3-dimethylureido)-2-methylpiperidin-1-yl)pyrazine-2-carboxamide]

IC50 (Btk (IC50)): 100 to 1000 nM
IC50 [1]: 100 to 1000 nM
SMILES: C[C@H]1[C@H](NC(=O)N(C)C)CCCN1c1cnc(C(N)=O)c(Nc2ccc(C3CCN(C4CCCC4)CC3)cc2)n1 [Example 233, 3-(4-(1-cyclopentylpiperidin-4-yl)phenylamino)-5-((2S,3R)-3-(3,3-dimethylureido)-2-methylpiperidin-1-yl)pyrazine-2-carboxamide]

IC50 [1]: < 10 nM
IC50 (read-out: Btk (IC50)): < 10 nM
SMILES: CC[C@@H]1[C@H](NC(=O)N(C)C)CCCN1c1cnc(C(N)=O)c(Nc2ccc(C3CCN(C4CCC4)CC3)cc2)n1 [Example 236, 3-(4-(1-cyclobutylpiperidin-4-yl)phenylamino)-5-((2R,3R)-3-(3,3-dimethylureido)-2-ethylpiperidin-1-yl)pyrazine-2-carboxamide]

IC50 (Btk (IC50)): < 10 nM
IC50 [1]: < 10 nM
SMILES: C[C@@H]1[C@H](NC(=O)N(C)C)CCCN1c1cnc(C(N)=O)c(Nc2ccc(C3CCN(C4CC4)CC3)cc2)n1 [Example 237, 3-(4-(1-cyclopropylpiperidin-4-yl)phenylamino)-5-((2R,3R)-3-(3,3-dimethylureido)-2-methylpiperidin-1-yl)pyrazine-2-carboxamide]

IC50 [1]: < 10 nM
IC50 (read-out: Btk (IC50)): < 10 nM
SMILES: C[C@@H]1[C@H](NC(=O)N(C)C)CCCN1c1cnc(C(N)=O)c(Nc2ccc(C3CCN(C4CCC4)CC3)cc2)n1 [Example 238, 3-(4-(1-cyclobutylpiperidin-4-yl)phenylamino)-5-((2R,3R)-3-(3,3-dimethylureido)-2-methylpiperidin-1-yl)pyrazine-2-carboxamide]

IC50 [1]: < 10 nM
IC50 (read-out: Btk (IC50)): < 10 nM
SMILES: C[C@@H]1[C@H](NC(=O)N(C)C)CCCN1c1cnc(C(N)=O)c(Nc2ccc(C3(C(F)(F)F)CC3)cc2)n1 [Example 239, 5-((2R,3R)-3-(3,3-dimethylureido)-2-methylpiperidin-1-yl)-3-(4-(1-(trifluoromethyl)cyclopropyl)phenylamino)pyrazine-2-carboxamide]

IC50 [1]: < 10 nM
IC50 (read-out: Btk (IC50)): < 10 nM
SMILES: C[C@@H]1[C@H](NC(=O)N(C)C)CCCN1c1cnc(C(N)=O)c(Nc2ccc(C3(C#N)CC3)cc2)n1 [Example 240, 3-(4-(1-cyanocyclopropyl)phenylamino)-5-((2R,3R)-3-(3,3-dimethylureido)-2-methylpiperidin-1-yl)pyrazine-2-carboxamide]

IC50 [1]: < 10 nM
SMILES: CC(C)Oc1ccc(Nc2nc(N3CCC[C@@H](NC(=O)N(C)C)[C@H]3C)cnc2C(N)=O)cc1 [Example 243, 5-((2R,3R)-3-(3,3-dimethylureido)-2-methylpiperidin-1-yl)-3-(4-isopropoxyphenylamino)pyrazine-2-carboxamide]

IC50 [1]: < 10 nM
SMILES: C[C@@H]1[C@H](NC(=O)N(C)C)CCCN1c1cnc(C(N)=O)c(Nc2ccc(S(C)(=O)=O)cc2)n1 [Example 244, 5-((2R,3R)-3-(3,3-dimethylureido)-2-methylpiperidin-1-yl)-3-(4-(methylsulfonyl)phenylamino)pyrazine-2-carboxamide]

Further lines, the compound ahead of its results:

SMILES: CN(C)C(=O)N[C@@H]1CCCN(c2cnc(C(N)=O)c(Nc3cnn(C4CC4)c3)n2)C1 [Example 216, (R)-3-(1-cyclopropyl-1H-pyrazol-4-ylamino)-5-(3-(3,3-dimethylureido)piperidin-1-yl)pyrazine-2-carboxamide]
IC50 [1]: 10 to 100 nM

SMILES: CN(C)C(=O)N[C@@H]1CCCN(c2cnc(C(N)=O)c(Nc3cnn(C4CCCC4)c3)n2)C1 [Example 217, (R)-3-(1-cyclopentyl-1H-pyrazol-4-ylamino)-5-(3-(3,3-dimethylureido)piperidin-1-yl)pyrazine-2-carboxamide]
IC50 [1]: 10 to 100 nM

SMILES: CN(C)C(=O)N[C@@H]1CCCN(c2cnc(C(N)=O)c(Nc3cnn(C4CCN(C(=O)C5CC5)CC4)c3)n2)C1 [Example 219, (R)-3-(1-(1-(cyclopropanecarbonyl)piperidin-4-yl)-1H-pyrazol-4-ylamino)-5-(3-(3,3-dimethylureido)piperidin-1-yl)pyrazine-2-carboxamide]
IC50 (Btk (IC50)): 10 to 100 nM
IC50 [1]: 10 to 100 nM

SMILES: CN(C)C(=O)N[C@@H]1CCCN(c2cnc(C(N)=O)c(Nc3ccc(C4(C)CCNCC4)cc3)n2)C1 [Example 221, (R)-5-(3-(3,3-dimethylureido)piperidin-1-yl)-3-(4-(4-methylpiperidin-4-yl)phenylamino)pyrazine-2-carboxamide]
IC50 [1]: < 10 nM
IC50 (read-out: Btk (IC50)): < 10 nM

SMILES: CN(C)C(=O)N[C@@H]1CCCN(c2cnc(C(N)=O)c(Nc3ccc(C4(C)CCN(C5CCCC5)CC4)cc3)n2)C1 [Example 222, (R)-3-(4-(1-cyclopentyl-4-methylpiperidin-4-yl)phenylamino)-5-(3-(3,3-dimethylureido)piperidin-1-yl)pyrazine-2-carboxamide]
IC50 [1]: < 10 nM
IC50 (read-out: Btk (IC50)): < 10 nM

SMILES: CN(C)C(=O)N[C@@H]1CCCN(c2cnc(C(N)=O)c(Nc3ccc(C4(C)CCN(C(=O)N(C)C)CC4)cc3)n2)C1 [Example 223, (R)-3-(4-(1-(dimethylcarbamoyl)-4-methylpiperidin-4-yl)phenylamino)-5-(3-(3,3-dimethylureido)piperidin-1-yl)pyrazine-2-carboxamide]
IC50 [1]: < 10 nM
IC50 (read-out: Btk (IC50)): < 10 nM

SMILES: CCC(=O)N1CCC(C)(c2ccc(Nc3nc(N4CCC[C@@H](NC(=O)N(C)C)C4)cnc3C(N)=O)cc2)CC1 [Example 224]
IC50 [1]: < 10 nM

SMILES: CN(C)C(=O)N(C)[C@@H]1CCCN(c2cnc(C(N)=O)c(Nc3ccc(C4CCN(S(C)(=O)=O)CC4)cc3)n2)C1 [Example 228, (R)-3-(4-(1-(methylsulfonyl)piperidin-4-yl)phenylamino)-5-(3-(1,3,3-trimethylureido)piperidin-1-yl)pyrazine-2-carboxamide]
IC50: 10 to 100 nM
IC50 [1]: 10 to 100 nM

SMILES: CN(C)C(=O)N(C)[C@@H]1CCCN(c2cnc(C(N)=O)c(Nc3ccc(N4CCS(=O)(=O)CC4)cc3)n2)C1 [Example 229, (R)-3-(4-(1,1-dioxothiomorpholino)phenylamino)-5-(3-(1,3,3-trimethylureido)piperidin-1-yl)pyrazine-2-carboxamide]
IC50: 10 to 100 nM
IC50 [1]: 10 to 100 nM

SMILES: C[C@@H]1[C@H](NC(=O)N(C)C)CCCN1c1cnc(C(N)=O)c(Nc2ccc(C3(C(N)=O)CC3)cc2)n1 [Example 241, 3-(4-(1-carbamoylcyclopropyl)phenylamino)-5-((2R,3R)-3-(3,3-dimethylureido)-2-methylpiperidin-1-yl)pyrazine-2-carboxamide]
IC50 [1]: < 10 nM

SMILES: Cc1cc(Nc2nc(N3CCC[C@@H](NC(=O)N(C)C)[C@H]3C)cnc2C(N)=O)sn1 [Example 242, 5-((2R,3R)-3-(3,3-dimethylureido)-2-methylpiperidin-1-yl)-3-(3-methylisothiazol-5-ylamino)pyrazine-2-carboxamide]
IC50 [1]: < 10 nM

SMILES: C[C@@H]1[C@H](NC(=O)N(C)C)CCCN1c1cnc(C(N)=O)c(Nc2ccc(C3(C)CCN(C4CCC4)CC3)cc2)n1 [Example 246, 3-(4-(1-cyclobutyl-4-methylpiperidin-4-yl)phenylamino)-5-((2R,3R)-3-(3,3-dimethylureido)-2-methylpiperidin-1-yl)pyrazine-2-carboxamide]
IC50 [1]: < 10 nM
IC50 (read-out: Btk (IC50)): < 10 nM

SMILES: C[C@@H]1[C@H](NC(=O)N(C)C)CCCN1c1cnc(C(N)=O)c(Nc2ccc(C3(C)CCN(C4CC4)CC3)cc2)n1 [Example 247, 3-(4-(1-cyclopropyl-4-methylpiperidin-4-yl)phenylamino)-5-((2R,3R)-3-(3,3-dimethylureido)-2-methylpiperidin-1-yl)pyrazine-2-carboxamide]
IC50 [1]: < 10 nM
IC50 (read-out: Btk (IC50)): < 10 nM
